Data as given in the supplement of paper PMC10307832.

Tests used:
Experiment in all cases: relative viability (nuclei count vs DMSO), 5 days (fraction); higher = more cells survive
201T = tested on: 201T
How it was run: (§1)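 Cells from lung cancer lines were seeded into 1536-well plates and, one day later, dosed by pin tool. Treatments were either a single drug or a fixed dose of an anchor drug with five library-drug doses (not always all listed) in √10 steps. After 5 days, nuclei were stained in a one-step fixation (final 0.05% Triton X-100, 1% formaldehyde, 1 ug/ml Hoechst) and counted on 4× images, and relative viability is the treated-to-vehicle nuclei ratio, as the median of duplicate plates.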

BEN = tested on: BEN
How it was run: as §1

COR-L 105 = tested on: COR-L 105
How it was run: as §1

EKVX = tested on: EKVX
How it was run: as §1

EPLC-272H = tested on: EPLC-272H
How it was run: as §1

H3255 = tested on: H3255
How it was run: as §1

HCC-44 = tested on: HCC-44
How it was run: as §1

HCC-827 = tested on: HCC-827
How it was run: as §1

HOP-62 = tested on: HOP-62
How it was run: as §1

LCLC-97TM1 = tested on: LCLC-97TM1
How it was run: as §1

LOU-NH91 = tested on: LOU-NH91
How it was run: as §1

LU99A = tested on: LU99A
How it was run: as §1

NCI-H1395 = tested on: NCI-H1395
How it was run: as §1

NCI-H1437 = tested on: NCI-H1437
How it was run: as §1

NCI-H1666 = tested on: NCI-H1666
How it was run: as §1

NCI-H1975 = tested on: NCI-H1975
How it was run: as §1

NCI-H2085 = tested on: NCI-H2085
How it was run: as §1

NCI-H2087 = tested on: NCI-H2087
How it was run: as §1

NCI-H358 = tested on: NCI-H358
How it was run: as §1

NCI-H647 = tested on: NCI-H647
How it was run: as §1

PC-3 [JPC-3] = tested on: PC-3 [JPC-3]
How it was run: as §1

SW 1573 = tested on: SW 1573
How it was run: as §1

O=C(O)c1ccc(-c2c[nH]c3ncc(-c4ccccc4)cc23)cc1C1CCCC1 + CS(=O)(=O)CCNCc1ccc(-c2ccc3ncnc(Nc4ccc(OCc5cccc(F)c5)c(Cl)c4)c3c2)o1 [Lapatinib] (partner 2 µM)
relative viability (201T; first compound 0.04 µM): 0.966
relative viability (201T; first compound 0.1265 µM): 1.06
relative viability (201T; first compound 0.4 µM): 1.01
relative viability (201T; first compound 1.265 µM): 0.988
relative viability (BEN; first compound 0.04 µM): 0.717
relative viability (BEN; first compound 0.1265 µM): 0.611
relative viability (BEN; first compound 0.4 µM): 0.815
relative viability (BEN; first compound 1.265 µM): 0.666
relative viability (COR-L 105; first compound 0.04 µM): 0.363
relative viability (COR-L 105; first compound 0.1265 µM): 0.401
relative viability (COR-L 105; first compound 0.4 µM): 0.347
relative viability (COR-L 105; first compound 1.265 µM): 0.371
relative viability (EKVX; first compound 0.04 µM): 0.218
relative viability (EKVX; first compound 0.1265 µM): 0.216
relative viability (EKVX; first compound 0.4 µM): 0.212
relative viability (EKVX; first compound 1.265 µM): 0.187
relative viability (EPLC-272H; first compound 0.04 µM): 1.16
relative viability (EPLC-272H; first compound 0.1265 µM): 1.01
relative viability (EPLC-272H; first compound 0.4 µM): 0.898
relative viability (EPLC-272H; first compound 1.265 µM): 0.877
relative viability (H3255; first compound 0.04 µM): 0.24
relative viability (H3255; first compound 0.1265 µM): 0.231
relative viability (H3255; first compound 0.4 µM): 0.26
relative viability (H3255; first compound 1.265 µM): 0.275
relative viability (HCC-44; first compound 0.04 µM): 0.959
relative viability (HCC-44; first compound 0.1265 µM): 1.02
relative viability (HCC-44; first compound 0.4 µM): 1.1
relative viability (HCC-44; first compound 1.265 µM): 0.913
relative viability (HCC-827; first compound 0.04 µM): 0.209
relative viability (HCC-827; first compound 0.1265 µM): 0.196
relative viability (HCC-827; first compound 0.4 µM): 0.189
relative viability (HCC-827; first compound 1.265 µM): 0.195
relative viability (HOP-62; first compound 0.04 µM): 1.23
relative viability (HOP-62; first compound 0.1265 µM): 0.993
relative viability (HOP-62; first compound 0.4 µM): 1.1
relative viability (HOP-62; first compound 1.265 µM): 0.897
relative viability (LCLC-97TM1; first compound 0.04 µM): 1.34
relative viability (LCLC-97TM1; first compound 0.1265 µM): 1.06
relative viability (LCLC-97TM1; first compound 0.4 µM): 0.922
relative viability (LCLC-97TM1; first compound 1.265 µM): 0.717
relative viability (LOU-NH91; first compound 0.04 µM): 0.814
relative viability (LOU-NH91; first compound 0.1265 µM): 0.837
relative viability (LOU-NH91; first compound 0.4 µM): 0.766
relative viability (LOU-NH91; first compound 1.265 µM): 0.651
relative viability (LU99A; first compound 0.04 µM): 0.972
relative viability (LU99A; first compound 0.1265 µM): 1.2
relative viability (LU99A; first compound 0.4 µM): 0.954
relative viability (LU99A; first compound 1.265 µM): 0.792
relative viability (NCI-H1395; first compound 0.04 µM): 1.01
relative viability (NCI-H1395; first compound 0.1265 µM): 1.23
relative viability (NCI-H1395; first compound 0.4 µM): 0.867
relative viability (NCI-H1395; first compound 1.265 µM): 0.851
relative viability (NCI-H1437; first compound 0.04 µM): 0.794
relative viability (NCI-H1437; first compound 0.1265 µM): 0.823
relative viability (NCI-H1437; first compound 0.4 µM): 0.765
relative viability (NCI-H1437; first compound 1.265 µM): 0.338
relative viability (NCI-H1666; first compound 0.04 µM): 0.673
relative viability (NCI-H1666; first compound 0.1265 µM): 0.522
relative viability (NCI-H1666; first compound 0.4 µM): 0.796
relative viability (NCI-H1666; first compound 1.265 µM): 0.344
relative viability (NCI-H1975; first compound 0.04 µM): 0.873
relative viability (NCI-H1975; first compound 0.1265 µM): 1.02
relative viability (NCI-H1975; first compound 0.4 µM): 1
relative viability (NCI-H1975; first compound 1.265 µM): 0.49
relative viability (NCI-H2085; first compound 0.04 µM): 0.762
relative viability (NCI-H2085; first compound 0.1265 µM): 0.947
relative viability (NCI-H2085; first compound 0.4 µM): 0.799
relative viability (NCI-H2085; first compound 1.265 µM): 0.508
relative viability (NCI-H2087; first compound 0.04 µM): 1.01
relative viability (NCI-H2087; first compound 0.1265 µM): 1.27
relative viability (NCI-H2087; first compound 0.4 µM): 1.02
relative viability (NCI-H2087; first compound 1.265 µM): 1.02
relative viability (NCI-H358; first compound 0.04 µM): 0.438
relative viability (NCI-H358; first compound 0.1265 µM): 0.447
relative viability (NCI-H358; first compound 0.4 µM): 0.448
relative viability (NCI-H358; first compound 1.265 µM): 0.323
relative viability (NCI-H647; first compound 0.04 µM): 1.05
relative viability (NCI-H647; first compound 0.1265 µM): 1.12
relative viability (NCI-H647; first compound 0.4 µM): 1.13
relative viability (NCI-H647; first compound 1.265 µM): 0.801
relative viability (PC-3 [JPC-3]; first compound 0.04 µM): 0.51
relative viability (PC-3 [JPC-3]; first compound 0.1265 µM): 0.489
relative viability (PC-3 [JPC-3]; first compound 0.4 µM): 0.466
relative viability (PC-3 [JPC-3]; first compound 1.265 µM): 0.459
relative viability (SW 1573; first compound 0.04 µM): 1.15
relative viability (SW 1573; first compound 0.1265 µM): 1.39
relative viability (SW 1573; first compound 0.4 µM): 1.14
relative viability (SW 1573; first compound 1.265 µM): 1.09
